Results as given in patent publication US10202387B2, “Heterocyclyl linked imidazopyridazine derivatives as PI3KB inhibitors” (Janssen Pharmaceutica NV, priority 2014, dated 2019).

Assays:
[1] = test system: Akt phosphorylated at Ser473 in PC-3 cells; assay: Cellular assay: phosphorylation of Akt (Ser473) in PC-3 cells, MSD ELISA; assay type: cell-based; settings: Homo sapiens, 1 h, 60 min incubation with compound, read-out: IC50 pAkt_S473
Experimental: (§1) Cellular activity of PI3Kβ inhibitors was determined by quantifying the phosphorylation of Akt in PC-3 cells. Akt phosphorylated at Ser473 and Thr308 were measured using an enzyme-linked immunosorbent assay (ELISA; Meso Scale Discovery (MSD). Gaithersburg, Md.) and specific primary antibodies from MSD.
(§2) On day 1, PC3 cells (ATCC […]) were seeded into PerkinElmer MW96 plates at 25.000 cells per well, in 75 μl complete culture medium (DMEM (Dulbecco's Modified Eagle's Medium) high glucose. AQmedia™, D0819, Sigma-Aldrich) containing 10% heat inactivated FCS (Fetal Bovine Serum) and incubated at 37° C., 5% CO2 during 24 hours. On day 2, compound or DMSO (dimethyl sulfoxide) (0.3%) was added and cells were further incubated for 60 min at 37° C., 5% CO2 in a total volume of 100 μl of medium.
(§3) The phosphoprotein assay was executed according to vendor instructions in the Phospho-Akt (Ser473) Assay Whole Cell Lysate Kit (MSD #K15100D-3) and the Phospho-Akt (Thr308) Assay Whole Cell Lysate Kit (MSD #K151DYD-3) using the lysis, blocking and wash buffer provided.
(§4) Briefly, at the end of the cell treatment period, media were removed by aspiration and adherent cells were lysed in 50 μl ice-cold lysis buffer. MSD plates are supplied pre-coated with capture antibodies for Phospho-Akt (Ser473 and Thr308). After blocking, lysates from tissue culture plates were added and plates were washed. Then, a solution containing the detection antibody (anti-total Akt conjugated with an electrochemiluminescent compound-MSD Sulfo-tag label) was added. The signals were detected using an MSD SECTOR Imager 6000 and are proportional to the phospho-Akt titres.
(§5) Data were processed. The percentage of inhibition was plotted against the log concentration of test compounds, and the sigmoidal log concentration-effect curve of best fit was calculated by nonlinear regression analysis. From these concentration-response curves, the IC50 values were calculated. Five concentrations were used for curve fitting.

[2] = biological target: T1, MTOR_h (Homo sapiens, UniProt P42345); assay: Enzyme binding assay (KINOMEscan); settings: DiscoveRx
T1 construct: purchased DiscoveRx Corporation, San Diego (KINOMEscan service)
Experimental: (§6) Enzyme Binding Assays (KINOMEscan®)
(§7) Kinase enzyme binding affinities of compounds disclosed herein were determined using the KINOMEscan technology performed by DiscoveRx Corporation, San Diego, Calif., USA (www.kinomescan.com). Table A reports the obtained Kd values (nM), with the Kd being the inhibitor binding constant: […]

[3] = biological target: T2, PIK3Cδ_h (Homo sapiens, UniProt O00329); assay: Enzyme binding assay (KINOMEscan); settings: DiscoveRx
T2 construct: purchased DiscoveRx Corporation, San Diego (KINOMEscan service)
T2 sequence (O00329 1-1044): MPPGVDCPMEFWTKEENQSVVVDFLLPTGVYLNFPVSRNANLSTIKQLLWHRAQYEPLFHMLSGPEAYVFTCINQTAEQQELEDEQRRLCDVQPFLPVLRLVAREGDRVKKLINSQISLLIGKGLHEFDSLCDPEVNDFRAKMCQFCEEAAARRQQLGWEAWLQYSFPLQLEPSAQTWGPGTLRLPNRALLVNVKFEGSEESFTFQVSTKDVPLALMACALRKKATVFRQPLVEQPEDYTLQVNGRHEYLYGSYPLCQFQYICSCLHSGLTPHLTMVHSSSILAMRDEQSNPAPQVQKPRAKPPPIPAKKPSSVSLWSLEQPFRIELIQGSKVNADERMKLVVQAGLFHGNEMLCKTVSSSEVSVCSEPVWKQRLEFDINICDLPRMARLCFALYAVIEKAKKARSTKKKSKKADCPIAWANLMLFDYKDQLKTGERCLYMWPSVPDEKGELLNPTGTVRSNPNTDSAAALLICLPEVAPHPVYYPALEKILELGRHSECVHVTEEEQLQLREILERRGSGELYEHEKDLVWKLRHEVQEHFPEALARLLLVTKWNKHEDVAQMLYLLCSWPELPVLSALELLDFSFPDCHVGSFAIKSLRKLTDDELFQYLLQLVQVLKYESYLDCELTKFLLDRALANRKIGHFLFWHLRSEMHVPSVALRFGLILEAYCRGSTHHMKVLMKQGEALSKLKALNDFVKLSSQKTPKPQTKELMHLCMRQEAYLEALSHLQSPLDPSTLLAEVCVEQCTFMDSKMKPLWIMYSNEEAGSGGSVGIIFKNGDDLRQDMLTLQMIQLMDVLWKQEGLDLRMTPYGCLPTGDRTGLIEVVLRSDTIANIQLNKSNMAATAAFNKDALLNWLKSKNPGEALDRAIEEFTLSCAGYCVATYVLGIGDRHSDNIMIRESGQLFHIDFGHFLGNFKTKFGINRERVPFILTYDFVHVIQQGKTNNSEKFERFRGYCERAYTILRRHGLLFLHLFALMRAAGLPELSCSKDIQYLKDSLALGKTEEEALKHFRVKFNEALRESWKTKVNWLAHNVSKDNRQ
Experimental: as §6, §7

[4] = biological target: T3, PIK3Cα_h (Homo sapiens, UniProt P42336); assay: Enzyme binding assay (KINOMEscan); settings: DiscoveRx
T3 construct: purchased DiscoveRx Corporation, San Diego (KINOMEscan service)
T3 sequence (P42336 whole entry): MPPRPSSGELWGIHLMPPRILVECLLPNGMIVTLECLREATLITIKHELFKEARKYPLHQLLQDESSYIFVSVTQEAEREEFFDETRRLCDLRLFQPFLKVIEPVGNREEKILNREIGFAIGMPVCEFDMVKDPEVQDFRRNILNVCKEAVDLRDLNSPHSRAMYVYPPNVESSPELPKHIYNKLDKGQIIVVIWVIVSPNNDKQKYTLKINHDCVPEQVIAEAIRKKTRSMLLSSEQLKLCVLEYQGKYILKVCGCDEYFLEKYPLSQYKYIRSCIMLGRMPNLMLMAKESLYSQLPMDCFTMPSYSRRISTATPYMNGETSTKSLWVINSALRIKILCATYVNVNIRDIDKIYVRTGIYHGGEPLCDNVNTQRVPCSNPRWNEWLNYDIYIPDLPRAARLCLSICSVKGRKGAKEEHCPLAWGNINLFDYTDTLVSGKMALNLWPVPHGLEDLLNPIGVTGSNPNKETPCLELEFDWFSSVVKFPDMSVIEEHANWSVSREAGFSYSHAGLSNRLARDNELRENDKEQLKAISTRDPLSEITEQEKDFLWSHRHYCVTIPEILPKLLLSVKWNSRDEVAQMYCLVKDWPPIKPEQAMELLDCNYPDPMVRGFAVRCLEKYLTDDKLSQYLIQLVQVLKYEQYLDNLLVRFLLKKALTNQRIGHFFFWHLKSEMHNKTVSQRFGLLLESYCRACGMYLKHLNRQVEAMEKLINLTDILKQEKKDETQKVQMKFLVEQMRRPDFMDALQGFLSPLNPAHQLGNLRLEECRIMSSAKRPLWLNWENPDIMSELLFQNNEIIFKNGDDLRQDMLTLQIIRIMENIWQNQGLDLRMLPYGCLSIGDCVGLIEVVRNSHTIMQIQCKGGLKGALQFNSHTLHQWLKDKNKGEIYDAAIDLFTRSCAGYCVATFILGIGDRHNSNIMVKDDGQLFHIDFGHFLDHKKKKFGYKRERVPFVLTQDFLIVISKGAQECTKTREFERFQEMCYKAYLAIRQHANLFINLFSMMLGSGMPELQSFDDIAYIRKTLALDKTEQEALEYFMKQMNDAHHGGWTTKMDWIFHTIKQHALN
Experimental: as §6, §7

[5] = biological target: T4, PIK3Cγ_h (Homo sapiens, UniProt P48736); assay: Enzyme binding assay (KINOMEscan); settings: DiscoveRx
T4 construct: purchased DiscoveRx Corporation, San Diego (KINOMEscan service)
T4 sequence (P48736 whole entry): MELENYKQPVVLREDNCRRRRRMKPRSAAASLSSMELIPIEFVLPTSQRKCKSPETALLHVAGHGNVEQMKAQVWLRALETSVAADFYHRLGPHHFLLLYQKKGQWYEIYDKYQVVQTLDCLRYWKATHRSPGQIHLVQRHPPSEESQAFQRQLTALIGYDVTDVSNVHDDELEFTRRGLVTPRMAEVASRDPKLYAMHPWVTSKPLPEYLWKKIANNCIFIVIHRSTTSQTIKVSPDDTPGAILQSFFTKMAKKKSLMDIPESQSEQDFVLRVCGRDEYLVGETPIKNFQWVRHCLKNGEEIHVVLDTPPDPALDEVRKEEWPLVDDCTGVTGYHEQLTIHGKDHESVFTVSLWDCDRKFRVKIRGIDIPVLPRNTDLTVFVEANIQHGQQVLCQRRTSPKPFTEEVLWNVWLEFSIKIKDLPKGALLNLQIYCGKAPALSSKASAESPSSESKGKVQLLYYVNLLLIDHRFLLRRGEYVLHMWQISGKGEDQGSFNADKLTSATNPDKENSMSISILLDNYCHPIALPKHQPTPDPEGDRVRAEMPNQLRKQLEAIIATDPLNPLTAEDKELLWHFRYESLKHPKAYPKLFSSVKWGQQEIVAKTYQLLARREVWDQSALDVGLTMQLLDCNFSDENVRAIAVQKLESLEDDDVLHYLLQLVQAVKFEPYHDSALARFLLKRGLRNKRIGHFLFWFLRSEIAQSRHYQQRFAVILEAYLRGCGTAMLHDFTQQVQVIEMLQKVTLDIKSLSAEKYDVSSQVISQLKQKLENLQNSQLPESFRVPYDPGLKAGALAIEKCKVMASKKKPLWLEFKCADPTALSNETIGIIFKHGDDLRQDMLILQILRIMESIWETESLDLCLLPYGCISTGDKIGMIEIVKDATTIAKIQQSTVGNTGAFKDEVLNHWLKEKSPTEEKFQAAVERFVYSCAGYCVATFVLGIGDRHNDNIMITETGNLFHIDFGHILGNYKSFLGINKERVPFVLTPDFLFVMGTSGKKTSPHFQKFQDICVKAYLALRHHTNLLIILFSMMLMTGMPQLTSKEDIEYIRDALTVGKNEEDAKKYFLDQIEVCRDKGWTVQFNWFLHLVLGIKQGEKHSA
Experimental: as §6, §7

[6] = biological target: T5, PIK3Cβ_h (Homo sapiens, UniProt P42338); assay: Enzyme binding assay (KINOMEscan); settings: DiscoveRx
T5 construct: purchased DiscoveRx Corporation, San Diego (KINOMEscan service)
T5 sequence (P42338 whole entry): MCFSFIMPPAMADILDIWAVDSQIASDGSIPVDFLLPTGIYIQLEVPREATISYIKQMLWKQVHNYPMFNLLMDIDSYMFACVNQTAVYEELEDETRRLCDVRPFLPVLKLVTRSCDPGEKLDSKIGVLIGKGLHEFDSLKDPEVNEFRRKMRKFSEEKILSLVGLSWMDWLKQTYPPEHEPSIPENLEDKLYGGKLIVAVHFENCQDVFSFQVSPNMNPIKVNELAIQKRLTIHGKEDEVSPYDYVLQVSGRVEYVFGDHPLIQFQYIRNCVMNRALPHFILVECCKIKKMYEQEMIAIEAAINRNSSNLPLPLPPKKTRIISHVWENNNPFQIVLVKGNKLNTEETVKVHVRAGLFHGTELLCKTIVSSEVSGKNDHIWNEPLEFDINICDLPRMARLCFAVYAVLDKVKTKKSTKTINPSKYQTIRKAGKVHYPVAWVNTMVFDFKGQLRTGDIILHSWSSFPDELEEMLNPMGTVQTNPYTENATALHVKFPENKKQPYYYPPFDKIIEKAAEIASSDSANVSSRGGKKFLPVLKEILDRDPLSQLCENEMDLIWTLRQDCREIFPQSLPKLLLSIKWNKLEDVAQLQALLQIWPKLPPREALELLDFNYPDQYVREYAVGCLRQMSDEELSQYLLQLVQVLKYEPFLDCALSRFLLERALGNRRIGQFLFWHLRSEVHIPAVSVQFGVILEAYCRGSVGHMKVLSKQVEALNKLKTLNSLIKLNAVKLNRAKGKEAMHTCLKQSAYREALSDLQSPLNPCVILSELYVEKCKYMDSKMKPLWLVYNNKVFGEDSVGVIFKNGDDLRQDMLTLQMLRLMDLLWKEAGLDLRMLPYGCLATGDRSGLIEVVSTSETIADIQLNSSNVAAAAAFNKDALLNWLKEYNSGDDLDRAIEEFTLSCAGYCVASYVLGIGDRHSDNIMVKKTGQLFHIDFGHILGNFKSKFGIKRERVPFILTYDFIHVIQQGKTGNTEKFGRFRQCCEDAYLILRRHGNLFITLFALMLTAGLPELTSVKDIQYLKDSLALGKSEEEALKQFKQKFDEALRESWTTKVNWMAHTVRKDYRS
Experimental: as §6, §7

[7] = test system: Akt phosphorylated at Thr308 in PC-3 cells; assay: Cellular assay: phosphorylation of Akt (Thr308) in PC-3 cells, MSD ELISA; assay type: cell-based; settings: Homo sapiens, 1 h, 60 min incubation with compound, read-out: IC50 pAkt_Thr308
Experimental: as §1, §2, §3, §4, §5

| SMILES | IC50 [1] | Kd [2] | Kd [3] | Kd [4] | Kd [5] | Kd [6] | IC50 [7] |
| --- | --- | --- | --- | --- | --- | --- | --- |
| Cc1c(Cc2c(CN3CC(O)C3)nc3c(N)cc(N4CCOCC4)nn23)cccc1C(F)(F)F [Compound 3] | ~89 nM | 11000 nM | 191 nM | 11500 nM | 16200 nM | 1.7 nM | 66 nM |
| Cc1c(Cc2c(CN3CCC(CS(C)(=O)=O)CC3)nc3c(N)cc(N4CCOCC4)nn23)cccc1C(F)(F)F [Compound 5] | ~132 nM | > 30200 nM | 219 nM | 12000 nM | > 30200 nM | 3.6 nM | 71 nM |
| Cc1c(Cc2c(CN3CC4(C3)CS(=O)(=O)C4)nc3c(N)cc(N4CCOCC4)nn23)cccc1C(F)(F)F [Compound 7] | 4 nM | 11400 nM | 8 nM | 436 nM | 27600 nM | 0.5 nM | 3 nM |
| Cc1c(Cc2c(CN3CC(C)NC(C)C3)nc3c(N)cc(N4CCOCC4)nn23)cccc1C(F)(F)F (stereo not shown) [Compound 10] | ~42 nM | 5750 nM | 52 nM | 4790 nM | > 30200 nM | 0.6 nM | ~48 nM |
| Cc1c(Cc2c(CN3CCCC4(CNC4)C3)nc3c(N)cc(N4CCOCC4)nn23)cccc1C(F)(F)F [Compound 12] | 85 nM | 11000 nM | 89 nM | 18600 nM | 8510 nM | 1.7 nM | ~87 nM |
| Cc1c(Cc2c(CN3CC4(CCCNC4)C3)nc3c(N)cc(N4CCOCC4)nn23)cccc1C(F)(F)F [Compound 13] | 28 nM | 3550 nM | 7 nM | 1380 nM | 977 nM | 0.2 nM | 44 nM |
| Cc1c(Cc2c(CN3CCC(N)CC3)nc3c(N)cc(N4CCOCC4)nn23)cccc1C(F)(F)F [Compound 14] | 68 nM | 13800 nM | 40 nM | 7410 nM | 4900 nM | 0.3 nM | 69 nM |
| Cc1c(Cc2c(CN3CCCC(CO)C3)nc3c(-c4cnc[nH]4)cc(N4CCOCC4)nn23)cccc1C(F)(F)F (stereo not shown) [Compound 15] | 30 nM | 7760 nM | 22 nM | 537 nM | 2190 nM | 1.4 nM | ~41 nM |
| Cc1c(Cc2c(CN3CC(C)NC(C)C3)nc3c(-c4cnc[nH]4)cc(N4CCOCC4)nn23)cccc1C(F)(F)F (stereo not shown) [Compound 16] | 38 nM | 2000 nM | 17 nM | 453 nM | 5700 nM | 0.7 nM | 28 nM |
| Cc1c(Cc2c(CN3CC(C)NC(C)C3)nc3c(-c4ncc[nH]4)cc(N4CCOCC4)nn23)cccc1C(F)(F)F (stereo not shown) [Compound 18] | 95 nM | 6070 nM | 14 nM | 475 nM | 3890 nM | 0.8 nM | 51 nM |
| Cc1c(Nc2c(CN3CC(C)NC(C)C3)nc3c(C(N)=O)cc(N4CCOCC4)nn23)cccc1C(F)(F)F (stereo not shown) [Compound 21] | 107 nM | 20000 nM | 129 nM | 1290 nM | 4170 nM | 1.1 nM | ~69 nM |
| Cc1c(Cc2c(CN3CC4(CC(O)C4)C3)nc3c(-c4cnc[nH]4)cc(N4CCOCC4)nn23)cccc1C(F)(F)F [Compound 27] | 62 nM | 1550 nM | 10 nM | 240 nM | 589 nM | 0.4 nM | 43 nM |
| Cc1c(Cc2c(CN3CC4(C3)CS(=O)(=O)C4)nc3c(C(=O)O)cc(N4CCOCC4)nn23)cccc1C(F)(F)F [Compound 28] | > 513 nM | 21400 nM | 13 nM | 372 nM | 15100 nM | 0.2 nM | > 513 nM |
| Cc1c(Cc2c(CN3CC4(CC(O)C4)C3)nc3c(C(=O)O)cc(N4CCOCC4)nn23)cccc1C(F)(F)F [Compound 29] | > 513 nM | > 30200 nM | 112 nM | 6310 nM | 28200 nM | 0.7 nM | > 513 nM |
| [2H]C1([2H])OC([2H])([2H])C([2H])([2H])N(c2cc(N)c3nc(CN4CC5(C4)CS(=O)(=O)C5)c(Cc4cccc(C(F)(F)F)c4C)n3n2)C1([2H])[2H] [Compound 30] | 4 nM | 8130 nM | 12 nM | 617 nM | 20000 nM | 0.3 nM | 4 nM |
| Cc1c(Cc2c(CN3CCCC34CCS(=O)(=O)C4)nc3c(N)cc(N4CCOCC4)nn23)cccc1C(F)(F)F (stereo not shown) [Compound 31] | 117 nM | > 30200 nM | 479 nM | > 30200 nM | > 30200 nM | 4.8 nM | 66 nM |
